These results are taken from patent publication US10851073B2, “Protein tyrosine phosphatase inhibitors and methods of use thereof” (Calico Life Sciences LLC, priority 2019, dated 2020).

The structures appear in SMILES notation.

The subject of this experiment is B16F10 mouse melanoma cells. The experiment in a line: B16F10 IFNγ-induced cellular growth inhibition assay. Particulars: B16-F10, with 0.5 ng/mL IFNγ, read-out: B16F10 GI IC50. The class given is cell-based. How it is done:
Example 229: B16F10 IFNγ-Induced Cellular Growth Inhibition Assay B16F10 mouse melanoma cells (ATCC Cat^# CRL-6475, Manassas, Va.) were seeded at a density of 500 cells per well in a 384-well clear bottom plate (Corning Cat^#3765, Corning, N.Y.) in 25 μL total volume of DMEM+10% FBS (Sigma Cat^# D6429 and Sigma Cat^# F4135, St. Louis, Mo.). Cells were allowed to adhere overnight at 37° C.+5% CO2. On the following day, 12.5 μL of mouse IFNγ (RD systems Cat^#485-MI/CF, Minneapolis, Minn.) was added to half of the plate (columns 13-24) at a concentration of 2 ng/mL for a final assay concentration of 0.5 ng/mL of IFNγ. Media only (12.5 μL of DMEM+10% FBS) was added to the remainder of the plate (columns 1-12). Next, compounds resuspended in DMSO (Sigma Cat^# D2650) at 100 mM were diluted in semi-log dilutions in DMSO ranging from 100 mM to 0.001 mM and DMSO only controls were included. The compound/DMSO dilutions were further diluted 1:250 in DMEM+10% FBS, and 12.5 μL of these dilutions were added in triplicates to cells of both treatment arms (with and without IFNγ). Final compound concentrations ranged from 100 μM to 0.001 μM with a final DMSO concentration of 0.1%. Compounds were only dosed in the inner 240 wells, avoiding the outer 2-well perimeter of the plate to minim/ze edge effects. Finally, the plate was loaded into an IncuCyte® S3 Live Cell Analysis System (Essen Bioscience-Sartorius, Ann Arbor, Mich.) maintained in a 37° C.+5% CO2 incubator, allowed to equilibrate for 2 hours, and imaged every 6 hours for 5 days. Confluence over time for compound dilutions in the presence and absence of IFNγ was measured. Growth inhibition values were obtained when the “DMSO/no IFNγ” control reached confluence >95%. At these time points, for each compound the percent growth inhibition at every compound dose level was calculated relative to the “DMSO/with IFNγ” control and used to determine the IC50.
On to `CC(C)CCNC(=O)N1CCc2cc(O)c(N3CC(=O)NS3(=O)=O)c(F)c2C1` [Compound 205, 8-fluoro-6-hydroxy-N-(3-methylbutyl)-7-(1,1,4-trioxo-1λ^6,2,5-thiadiazolidin-2-yl)-3,4-dihydroisoquinoline-2(1H)-carboxamide], for which the IC50 lay in the range of 1 to 10 µM.

Regarding `CC(C)CNC(=O)N1CCc2cc(O)c(N3CC(=O)NS3(=O)=O)c(F)c2C1` [Compound 206, 8-fluoro-6-hydroxy-N-(2-methylpropyl)-7-(1,1,4-trioxo-1λ^6,2,5-thiadiazolidin-2-yl)-3,4-dihydroisoquinoline-2(1H)-carboxamide], the IC50 lay within 1 to 10 µM.

On to `Cc1noc(C)c1CN1CCc2cc(O)c(N3CC(=O)NS3(=O)=O)c(F)c2C1` [Compound 208, 5-{2-[(3,5-dimethyl-1,2-oxazol-4-yl)methyl]-8-fluoro-6-hydroxy-1,2,3,4-tetrahydroisoquinolin-7-yl}-1λ^6,2,5-thiadiazolidine-1,1,3-trione], for which the IC50 fell in the range of 10 to 100 µM.

As for `Cc1nn(C)c(C)c1CCN1CCc2cc(O)c(N3CC(=O)NS3(=O)=O)c(F)c2C1` [Compound 209, 5-{8-fluoro-6-hydroxy-2-[2-(1,3,5-trimethyl-1H-pyrazol-4-yl)ethyl]-1,2,3,4-tetrahydroisoquinolin-7-yl}-1λ^6,2,5-thiadiazolidine-1,1,3-trione], the IC50 is 1 to 10 µM.

For the compound `Cc1noc(C)c1CCN1CCc2cc(O)c(N3CC(=O)NS3(=O)=O)c(F)c2C1` [Compound 211, 5-{2-[2-(3,5-dimethyl-1,2-oxazol-4-yl)ethyl]-8-fluoro-6-hydroxy-1,2,3,4-tetrahydroisoquinolin-7-yl}-1λ^6,2,5-thiadiazolidine-1,1,3-trione], the IC50 was under 1 µM.

For `O=C1CN(c2c(O)cc3c(c2F)CN(CCC2CCOCC2)CC3)S(=O)(=O)N1` [Compound 214, 5-{8-fluoro-6-hydroxy-2-[2-(oxan-4-yl)ethyl]-1,2,3,4-tetrahydroisoquinolin-7-yl}-1λ^6,2,5-thiadiazolidine-1,1,3-trione], the IC50 is 1 to 10 µM.

For `COCCCN1CCc2cc(O)c(N3CC(=O)NS3(=O)=O)c(F)c2C1` [Compound 217, 5-[8-fluoro-6-hydroxy-2-(3-methoxypropyl)-1,2,3,4-tetrahydroisoquinolin-7-yl]-1λ^6,2,5-thiadiazolidine-1,1,3-trione], the IC50 was 1 to 10 µM.

As to `NCCCN1CCc2cc(O)c(N3CC(=O)NS3(=O)=O)c(F)c2C1` [Compound 218, 5-[2-(3-aminopropyl)-8-fluoro-6-hydroxy-1,2,3,4-tetrahydroisoquinolin-7-yl]-1λ^6,2,5-thiadiazolidine-1,1,3-trione], the IC50 lay within 10 to 100 µM.

For `CC(C)(C)OC(=O)N1CCc2cc(O)c(N3CC(=O)NS3(=O)=O)c(F)c2C1` [Compound 221, tert-butyl 8-fluoro-6-hydroxy-7-(1,1,4-trioxo-1λ^6,2,5-thiadiazolidin-2-yl)-3,4-dihydroisoquinoline-2(1H)-carboxylate], the IC50 was 1 to 10 µM.

Regarding `O=C1CN(c2c(O)cc3c(c2F)CN(CCCN2CCOCC2)CC3)S(=O)(=O)N1` [Compound 229, 5-{8-fluoro-6-hydroxy-2-[3-(morpholin-4-yl)propyl]-1,2,3,4-tetrahydroisoquinolin-7-yl}-1λ^6,2,5-thiadiazolidine-1,1,3-trione], the IC50 was in the range of 1 to 10 µM.

For the compound `O=C1CN(c2c(O)cc3c(c2F)CN(CC[C@H]2C[C@@H](OC(F)(F)F)C2)CC3)S(=O)(=O)N1` [Compound 231, 5-(8-fluoro-6-hydroxy-2-{2-[(1s,3r)-3-(trifluoromethoxy)cyclobutyl]ethyl}-1,2,3,4-tetrahydroisoquinolin-7-yl)-1λ^6,2,5-thiadiazolidine-1,1,3-trione], the IC50 lay in the range of 1 to 10 µM.

Consider `Cc1nn(C(F)F)c(C)c1CCN1CCc2cc(O)c(N3CC(=O)NS3(=O)=O)c(F)c2C1` [Compound 238, 5-(2-{2-[1-(difluoromethyl)-3,5-dimethyl-1H-pyrazol-4-yl]ethyl}-8-fluoro-6-hydroxy-1,2,3,4-tetrahydroisoquinolin-7-yl)-1λ^6,2,5-thiadiazolidine-1,1,3-trione], for which the IC50 was in the range of 1 to 10 µM.

Regarding `O=C1CN(c2c(O)cc3c(c2F)CN(CCC2(C(F)(F)F)CC2)CC3)S(=O)(=O)N1` [Compound 243, 5-(8-fluoro-6-hydroxy-2-{2-[1-(trifluoromethyl)cyclopropyl]ethyl}-1,2,3,4-tetrahydroisoquinolin-7-yl)-1λ^6,2,5-thiadiazolidine-1,1,3-trione], the IC50 is 1 to 10 µM.

As for `C[C@H](N)CN1CCc2cc(O)c(N3CC(=O)NS3(=O)=O)c(F)c2C1` [Compound 245, 5-{2-[(2S)-2-aminopropyl]-8-fluoro-6-hydroxy-1,2,3,4-tetrahydroisoquinolin-7-yl}-1λ^6,2,5-thiadiazolidine-1,1,3-trione], the IC50 was 1 to 10 µM.

For `O=C1CN(c2c(O)cc3c(c2F)CN(CCN2CCNCC2)CC3)S(=O)(=O)N1` [Compound 247, 5-{8-fluoro-6-hydroxy-2-[2-(piperazin-1-yl)ethyl]-1,2,3,4-tetrahydroisoquinolin-7-yl}-1λ^6,2,5-thiadiazolidine-1,1,3-trione], the IC50 lay within 10 to 100 µM.

In the case of `N[C@H](CCC1CCCCC1)C(=O)N1CCc2cc(O)c(N3CC(=O)NS3(=O)=O)c(F)c2C1` [Compound 250, 5-{2-[(2R)-2-amino-4-cyclohexylbutanoyl]-8-fluoro-6-hydroxy-1,2,3,4-tetrahydroisoquinolin-7-yl}-1λ^6,2,5-thiadiazolidine-1,1,3-trione], the IC50 is over 100 µM.

Take `CC(C)OCCCN1CCc2cc(O)c(N3CC(=O)NS3(=O)=O)c(F)c2C1` [Compound 251, 5-(8-fluoro-6-hydroxy-2-{3-[(propan-2-yl)oxy]propyl}-1,2,3,4-tetrahydroisoquinolin-7-yl)-1λ^6,2,5-thiadiazolidine-1,1,3-trione]: the IC50 is 1 to 10 µM.

Consider `Cn1cc(CCN2CCc3cc(O)c(N4CC(=O)NS4(=O)=O)c(F)c3C2)cn1` [Compound 252, 5-{8-fluoro-6-hydroxy-2-[2-(1-methyl-1H-pyrazol-4-yl)ethyl]-1,2,3,4-tetrahydroisoquinolin-7-yl}-1λ^6,2,5-thiadiazolidine-1,1,3-trione], for which the IC50 is 10 to 100 µM.

Turning to `Cc1nn(CC(F)F)c(C)c1CCN1CCc2cc(O)c(N3CC(=O)NS3(=O)=O)c(F)c2C1` [Compound 253, 5-(2-{2-[1-(2,2-difluoroethyl)-3,5-dimethyl-1H-pyrazol-4-yl]ethyl}-8-fluoro-6-hydroxy-1,2,3,4-tetrahydroisoquinolin-7-yl)-1λ^6,2,5-thiadiazolidine-1,1,3-trione], the IC50 lay in the range of 1 to 10 µM.

Regarding `Cc1c(CCN2CCc3cc(O)c(N4CC(=O)NS4(=O)=O)c(F)c3C2)cnn1C` [Compound 257, 5-{2-[2-(1,5-dimethyl-1H-pyrazol-4-yl)ethyl]-8-fluoro-6-hydroxy-1,2,3,4-tetrahydroisoquinolin-7-yl}-1λ^6,2,5-thiadiazolidine-1,1,3-trione], the IC50 was in the range of 1 to 10 µM.

In the case of `O=C1CN(c2c(O)cc3c(c2F)CN(C(=O)NCC2CC2)CC3)S(=O)(=O)N1` [Compound 258, N-(cyclopropylmethyl)-8-fluoro-6-hydroxy-7-(1,1,4-trioxo-1λ^6,2,5-thiadiazolidin-2-yl)-3,4-dihydroisoquinoline-2(1H)-carboxamide], the IC50 is 1 to 10 µM.

Usually IC50 stands for the concentration at which inhibition is half-maximal.
